Laboratory results as given in patent US11319324B2, “Pyrazolo-pyrrolo-pyrimidine-dione derivatives as P2X3 inhibitors” (Bayer Aktiengesellschaft, priority 2017, dated 2022).

Assays:
Format in all cases: cell-based
[1] = target: T1, human P2X3 receptor (Homo sapiens, UniProt P56373); assay: Intracellular calcium measurement, antagonist activity at human P2X3 receptors (hP2X3 1321N1), Fluo8; parameters: expressed in transfected cells; host or cells: human astrocytoma 1321N1 (1312N1 [sic]); details: column 3); 1321N1 cells, human P2X3, Fluo8, agonist ATP at EC50
T1 sequence (P56373 1-397): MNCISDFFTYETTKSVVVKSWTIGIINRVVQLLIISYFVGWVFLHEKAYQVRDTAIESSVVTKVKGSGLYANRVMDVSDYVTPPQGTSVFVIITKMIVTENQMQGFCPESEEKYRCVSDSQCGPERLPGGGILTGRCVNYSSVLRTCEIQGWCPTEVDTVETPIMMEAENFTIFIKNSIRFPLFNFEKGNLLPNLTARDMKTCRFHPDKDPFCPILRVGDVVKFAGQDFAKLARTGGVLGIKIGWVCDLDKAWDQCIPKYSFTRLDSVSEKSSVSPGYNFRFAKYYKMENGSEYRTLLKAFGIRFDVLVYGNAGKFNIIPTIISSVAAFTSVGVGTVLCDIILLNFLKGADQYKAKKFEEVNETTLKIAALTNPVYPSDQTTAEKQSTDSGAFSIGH
How it was run: (§1)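 Antagonism was assessed by decrease of the Fluo8 calcium signal after ATP challenge, with ATP dosed at the EC50 of whichever receptor was tested. Stable 1321N1 astrocytoma lines expressed either human P2X3 or both P2X2 and P2X3, and were dye-loaded 60 min before a 10 min compound incubation.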

[2] = target: T2, human P2X2/3 receptors (Homo sapiens, UniProt P56373+Q9UBL9); assay: Intracellular calcium measurement, antagonist activity at human P2X2/3 receptors (hP2X23 1321N1), Fluo8; details: for IC50: column 4); 1321N1 cells, human P2X2/3, Fluo8, agonist ATP at EC50; read-out: 4) hP2X2/3 IC50 [nM] (1321N1); for hP2X23/hP2X3* Selectivity (1321N1): ratio of column 4) hP2X2/3 to column 3) hP2X3, 1321N1
T2 construct: expressed in transfected cells; host or cells: human astrocytoma 1321N1 (1312N1 [sic])
T2 sequence (P56373 1-397): T1 sequence (P56373 1-397)
T2 sequence (Q9UBL9 1-471): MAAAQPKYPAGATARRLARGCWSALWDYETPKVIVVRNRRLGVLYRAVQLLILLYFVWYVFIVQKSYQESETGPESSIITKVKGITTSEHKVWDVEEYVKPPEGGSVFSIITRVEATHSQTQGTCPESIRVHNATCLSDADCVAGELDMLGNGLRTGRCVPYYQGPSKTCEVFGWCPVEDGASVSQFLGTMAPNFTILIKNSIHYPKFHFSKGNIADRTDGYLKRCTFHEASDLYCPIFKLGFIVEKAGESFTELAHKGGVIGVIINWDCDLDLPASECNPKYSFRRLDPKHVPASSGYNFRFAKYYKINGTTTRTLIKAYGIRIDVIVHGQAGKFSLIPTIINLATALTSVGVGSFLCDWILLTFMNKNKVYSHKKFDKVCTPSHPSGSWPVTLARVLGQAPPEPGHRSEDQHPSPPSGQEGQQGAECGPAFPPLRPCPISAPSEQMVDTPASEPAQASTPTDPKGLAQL
How it was run: as §1

[3] = target: T1, human P2X3 receptor; assay: Intracellular calcium measurement to assess antagonist activity at human P2X3 receptors (hP2X3 CHO), photina luminescence; parameters: expressed in transfected cells; host or cells: Chinese hamster ovary (CHO) cells; details: column 2), CHO cells, agonist α,β-methylene-ATP at EC50
How it was run: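 Antagonism read as lowered photina luminescence after agonist stimulation in recombinant hP2X3/photina CHO cells. Cells seeded one day earlier (30 °C) and reconstituted with 5 μg/ml coelenterazine in 2 mM Ca-tyrode buffer for 3 h at 37 °C before measurement.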

| IC50 [1] [nM] | IC50 [2] [nM] | hP2X23/hP2X3* Selectivity (1321N1) [2] | IC50 [3] [nM] | SMILES |
| --- | --- | --- | --- | --- |
| 15 | 4150 | 277 | 10 | COC[C@H](C)N1Cc2c(n(CC(=O)Nc3ccc(F)cn3)c3cc(C(=O)N(C)C4CC4)nn3c2=O)C1=O [Example 196] |
| 20 | 2300 | 118 | 23 | CC(C)N1Cc2c(n(CC(=O)Nc3ccc(F)cn3)c3cc(C(=O)N4CCCCC4)nn3c2=O)C1=O [Example 183] |
| 21 | 2300 | 112 | 21 | CC(C)N1Cc2c(n(CC(=O)Nc3ccc(F)cn3)c3cc(C(=O)NCC4CC4)nn3c2=O)C1=O [Example 187] |
| 317 | > 32000 | >101 | 270 | CCc1cc2n(CC(=O)Nc3ccc(F)cn3)c3c(c(=O)n2n1)CN(C1CCN(C(=O)C(F)F)C1)C3=O (stereo not drawn) [Example 266] |
| 42 | 2600 | 61 | 103 | CCc1cc2n(CC(=O)Nc3ccc(F)cn3)c3c(c(=O)n2n1)CN(CC1CCCN1C(=O)OC(C)(C)C)C3=O (stereo not drawn) [Example 81] |
| 17 | 5000 | 294 | 18 | CCc1cc2n(CC(=O)Nc3ccc(F)cn3)c3c(c(=O)n2n1)CN(Cc1cccnc1)C3=O [Example 107] |
| 145 | 13000 | 90 | 83 | Cc1ccc(NC(=O)Cn2c3c(c(=O)n4nc(C5CCOCC5)cc24)CN(C(C)C)C3=O)nc1 [Example 59] |
| 68 | 7700 | 114 | 88 | CC(C)N1Cc2c(n(CC(=O)Nc3ccc(F)cn3)c3cc(NCCOCc4ccccc4)nn3c2=O)C1=O [Example 176, 2-[2-{[2-(benzyloxy)ethyl]amino}-5,8-dioxo-6-(propan-2-yl)-5,6,7,8-tetrahydro-4H-pyrazolo[1,5-a]pyrrolo[3,4-d]pyrimidin-4-yl]-N-(5-fluoropyridin-2-yl)acetamide] |
| 27 | > 32000 | >1185 | 39 | CC(C)N1Cc2c(n(CC(=O)Nc3ccc(F)cn3)c3cc(C4CCS(=O)(=O)CC4)nn3c2=O)C1=O [Example 229, 2-[2-(1,1-dioxo-1lambda^6-thian-4-yl)-5,8-dioxo-6-(propan-2-yl)-5,6,7,8-tetrahydro-4H-pyrazolo[1,5-a]pyrrolo[3,4-d]pyrimidin-4-yl]-N-(5-fluoropyridin-2-yl)acetamide] |
| 235 | > 32000 | >136 | 120 | CC(C)N1Cc2c(n(CC(=O)Nc3ccc(F)cn3)c3cc(CO)nn3c2=O)C1=O [Example 72] |
| 340 | > 66000 | >194 | 155 | CC(C)N1Cc2c(n(CC(=O)Nc3ccc(F)cn3)c3cc(C4CCNC4)nn3c2=O)C1=O.Cl (racemic) [Example 235, 2-{5,8-dioxo-6-(propan-2-yl)-2-[(±)-pyrrolidin-3-yl]-5,6,7,8-tetrahydro-4H-pyrazolo[1,5-a]pyrrolo[3,4-d]pyrimidin-4-yl}-N-(5-fluoropyridin-2-yl)acetamide hydrochloride (1:1)] |
| 17 | 7400 | 427 | 36 | CC(C)N1Cc2c(n(CC(=O)Nc3ccc(F)cn3)c3cc(C4CCN(C(=O)C(F)F)CC4)nn3c2=O)C1=O [Example 264] |
| 4 | 295 | 78 | 12 | Cc1cc(C)c(-c2cc3n(CC(=O)Nc4ccc(F)cn4)c4c(c(=O)n3n2)CN(C(C)C)C4=O)cn1 [Example 156] |
| 37 | 6950 | 190 | 73 | CC(C)N1Cc2c(n(CC(=O)Nc3ccc(F)cn3)c3cc(NCC4CC4)nn3c2=O)C1=O [Example 175] |
| 26 | 8800 | 345 | 20 | CC(C)N1Cc2c(n(CC(=O)Nc3ccc(F)cn3)c3cc(CC4CCOCC4)nn3c2=O)C1=O [Example 96] |
| 39 | 5550 | 142 | 41 | CCc1cc2n(CC(=O)Nc3ccc(F)cn3)c3c(c(=O)n2n1)CN(C[C@@H]1COCCN1CCC(F)(F)F)C3=O [Example 261] |
| 125 | > 32000 | >256 | 187 | CCc1cc2n(CC(=O)Nc3ccc(F)cn3)c3c(c(=O)n2n1)CN(C1CCN(C(=O)NC(C)C)C1)C3=O (racemic) [Example 274, (±)-3-[2-ethyl-4-{2-[(5-fluoropyridin-2-yl)amino]-2-oxoethyl}-5,8-dioxo-5,8-dihydro-4H-pyrazolo[1,5-a]pyrrolo[3,4-d]pyrimidin-6(7H)-yl]-N-(propan-2-yl)pyrrolidine-1-carboxamide] |
| 120 | > 20700 | >173 | 108 | COCCNc1cc2n(CC(=O)Nc3ccc(F)cn3)c3c(c(=O)n2n1)CN(C(C)C)C3=O [Example 169] |
| 57 | 660 | 12 | 54 | CCc1cc2n(CC(=O)Nc3ccc(F)cn3)c3c(c(=O)n2n1)CN(C[C@H]1CN(C2CCC2)CCO1)C3=O [Example 257] |
| 46 | 10500 | 227 | 69 | CCc1cc2n(CC(=O)Nc3ccc(F)cn3)c3c(c(=O)n2n1)CN(Cc1ccncc1)C3=O [Example 106] |
| 130 | 3450 | 27 | 94 | CCc1cc2n(CC(=O)Nc3ccc(F)cn3)c3c(c(=O)n2n1)CN(C[C@@H]1CN(C(=O)OC(C)(C)C)CCO1)C3=O [Example 90, Tert-butyl(2R)-2-{[2-ethyl-4-{2-[(5-fluoropyridin-2-yl)amino]-2-oxoethyl}-5,8-dioxo-5,8-dihydro-4H-pyrazolo[1,5-a]pyrrolo[3,4-d]pyrimidin-6(7H)-yl]methyl}morpholine-4-carboxylate] |
| 52 | 1080 | 21 | 66 | CCc1cc2n(CC(=O)Nc3ccc(F)cn3)c3c(c(=O)n2n1)CN(C[C@H]1CN(C2CC2)CCO1)C3=O [Example 258] |
| 13 | 2110 | 169 | 11 | CC(C)N1Cc2c(n(CC(=O)Nc3ccc(F)cn3)c3cc(-c4ccncc4)nn3c2=O)C1=O [Example 149, 2-[5,8-dioxo-6-(propan-2-yl)-2-(pyridin-4-yl)-5,6,7,8-tetrahydro-4H-pyrazolo[1,5-a]pyrrolo[3,4-d]pyrimidin-4-yl]-N-(5-fluoropyridin-2-yl)acetamide] |
| 11 | 2550 | 232 | 17 | CCc1cc2n(CC(=O)Nc3ccc(F)cn3)c3c(c(=O)n2n1)CN(Cc1ccc(F)cc1)C3=O [Example 112] |
| 63 | 1950 | 31 | 32 | CCc1cc2n(CC(=O)Nc3ccc(F)cn3)c3c(c(=O)n2n1)CN(CC1CCN(C(=O)OC(C)(C)C)C1)C3=O (stereo not drawn) [Example 80] |
| 8 | 765 | 96 | 21 | Cc1ccc(-c2cc3n(CC(=O)Nc4ccc(F)cn4)c4c(c(=O)n3n2)CN(C(C)C)C4=O)cn1 [Example 154] |
| 410 | > 23000 | >56 | 290 | CCc1cc2n(CC(=O)Nc3ccc(F)cn3)c3c(c(=O)n2n1)CN(C1CCOCC1)C3=O [Example 94] |
